Broadly, the IC50 is the concentration at which inhibition is half-maximal. For orientation: kcat/Km means the turnover number divided by the Michaelis constant. The term Km denotes the substrate concentration at which the rate is half of its maximum. One may read the kcat as the maximal rate divided by the concentration of active sites.

The text below walks through data of paper PMC12650519, “The Identification of a Sub-Micromolar Peptide-Based Protein Arginine Methyltransferase 1 (PRMT1) Inhibitor from a Plate-Based Screening Assay” (Biomolecules, 2025).

The target in test [1] is T1, PRMT1 (Homo sapiens, UniProt Q99873).
T1 construct: made in house
T1 sequence (Q99873 1-353 isoform Q99873-3): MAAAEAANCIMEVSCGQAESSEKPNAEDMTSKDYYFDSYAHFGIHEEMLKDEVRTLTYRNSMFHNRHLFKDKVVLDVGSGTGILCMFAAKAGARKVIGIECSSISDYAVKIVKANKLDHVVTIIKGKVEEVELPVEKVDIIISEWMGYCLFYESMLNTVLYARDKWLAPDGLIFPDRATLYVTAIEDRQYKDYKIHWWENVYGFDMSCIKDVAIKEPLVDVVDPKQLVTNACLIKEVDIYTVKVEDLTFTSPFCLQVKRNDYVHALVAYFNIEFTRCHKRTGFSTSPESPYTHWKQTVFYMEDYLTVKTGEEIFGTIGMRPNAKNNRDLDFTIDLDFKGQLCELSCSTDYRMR
Briefly: MTase-Glo assay, inhibition by chloroacetamidine warhead peptide. The test is classed as biochemical. Conditions: inhibitor 0–250 µM, 4 µL of 400 nM PRMT1, 15 min pre-incubation at 37 °C, substrate AcH4-21 (1 µL of 225 µM), Tris pH 8.0. As for the experimental part: The MTase-Glo assay was also used to determine the inhibition parameters of the chloroacetamidine warhead peptide. For this assay, various concentrations of the chloroacetamidine warhead peptide (0–250 µM) were added to reaction buffer (80 mM Tris Buffer [pH 8.0], […], 4 mM EDTA, 12 mM MgCl2, 0.4 mg/mL BSA and 4 mM DTT) and incubated for 10 min at 37 °C. Following this incubation, 4 µL of 400 nM PRMT1 was added to the inhibition reaction mix and continued to be incubated at 37 °C for 15 min. The substrate peptide, 1 uL of 225 µM AcH4-21, was added to each reaction for 15 min. To quench the reaction, each sample received 2 µL of 0.5% TFA solution and placed at room temperature before 2.2 µL of the 6× MTase-Glo reagent was added to each sample for 30 min. Then 13.2 µL of the MTase-Glo Detection solution was added and incubated for an additional 30 min. The luminescence signal was read using a BioTek Synergy 2 Multi-Mode Microplate Reader and the % activity was calculated using an SAH standard curve (0–5 µM) before being fit to Equation (2):(2) Fractional Activity of PRMT=1/1+ 1/IC50 using GraFit version 7.03.

The target of test [2] is T1, PRMT1. Conditions: cited from earlier work. As for the experimental part:
Table 3 List of Validation Peptide Sequences along with the Kinetic Parameters. | column: kcat (min^−1); Km (µM); kcat/Km (M^−1 min^−1) || Design and Synthesis of the Peptide Library. Histone peptides are well-documented substrates of PRMT1 and thus provide a good model for the design of a screening library to search for better PRMT1 peptide substrates. […] Given that our study is focused on identifying peptide substrates with improved kinetic parameters, we chose to use a library based on the H4-16 template. Our previous work highlighted that flexibility was permitted within the ... || Rather than testing all individual hit peptide sequences, and to help identify the specific elements that are important for PRMT1 substrate binding, we collected and synthesized a series of consensus-based sequences from the list of hit peptides.

For test [3], the target named is T1, PRMT1. Nature of the test: MTase-Glo Methyltransferase Assay, kinetic parameters of peptide substrates. Type of test: biochemical. The note with it: Tris pH 8.0; for kcat / Km: MTase-Glo luminescence, peptide 0–1000 µM, 4 µL of 200 nM PRMT1, 10 min at 37 °C, SAH standards, fit with GraFit; for kcat/Km: from kcat and Km, MTase-Glo assay, 37 °C. As for the experimental part: To determine the kinetic parameters, kcat, Km and kcat/Km for each of the validation or hit peptides, a MTase-Glo™ Methyltransferase Assay from the Promega Corporation was utilized to monitor the enzymatic reaction.
Varying concentrations (0–1000 µM) of the peptide in assay buffer (4 mM DTT, 0.4 mg/mL BSA, 4 mM EDTA, 12 mM MgCl2, 200 mM NaCl and 80 mM Tris Buffer-pH 8.0) were incubated at 37 °C for 10 min. Then 4 µL of 200 nM PRMT1 was added to this reaction mixture and continued for another 10 min at 37 °C. Of note the enzymatic activity was linear with respect to time and enzyme concentration under these conditions. The reaction was quenched by the addition of 2 µL 0.5% TFA and placed at room temperature before adding 2.2 µL of the 6× MTase-Glo Reagent. After 30 min, 13.2 µL of the MTase-Glo Detection Solution was added and incubated for an additional 30 min before the luminescence was read using a BioTek Synergy 2 Multi-Mode Microplate Reader (Agilent Technologies, Santa Clara, CA). Luminescence signal was converted to product concentration using SAH standards (0–5 μM) and the initial rates were fit to Equation (1):[…](1) using GraFit version 7.03.

Test [4] has as its system PRMT1. Nature of the test: Plate-based on-bead substrate screening assay (ADMA antibody / alkaline phosphatase / BCIP). The test is classed as biochemical. Conditions: 20 beads/well; 500 nM PRMT1, 400 µM SAM, 37 °C, HEPES pH 8.0; hit = at least 10 blue beads per well. As for the experimental part: The beads from the filter plate were transferred to an Acrowell 96 Filter screening plate (Cat#5020; Pall Corporation; Port Washington, NY) and rinsed with 0.20 mL DI water, followed by 0.20 mL of TBST 10 times. The beads were swelled with 0.25 mL TBST overnight with gentle rocking at 4 °C. The plate was rinsed with 0.25 mL of Assay Buffer #1 (50 mM HEPES pH 8.0, 50 mM NaCl, 1 mM EDTA). After draining, the plate was incubated with 500 nM PRMT1 in 0.1 mL of Assay Buffer #2 (50 mM HEPES pH 8.0, 50 mM NaCl, 1 mM EDTA, 0.5 mM DTT, 400 µM SAM) for 90 min at 37 °C while rocked gently at 120 rpm. The plate was rinsed with TBST (5 × 0.20 mL) then rocked gently in 100 µL of 0.1% SDS for 15 min at room temperature, before being washed with DI water (10 × 0.20 mL) and TBST (10 × 0.20 mL).
Beads were blocked with 125 µL of 1.5% (w/v) BSA in TBST for 1 h at room temperature with gentle rocking. The beads were rinsed with TBST (5 × 0.20 mL), then incubated overnight at 4 °C with 0.065 mL total volume of TBST + 1.5% (w/v) BSA + 1:500 Ab412 antibody (purchased from Abcam; Cambridge, UK) with gentle rocking.
The plate was then rinsed with 0.20 mL of TBS for 10 min and 0.20 mL TBST for another 10 min. The plate was incubated with gentle rocking for 60 min at room temperature with 0.065 mL total volume of TBST + 1.5% (w/v) BSA + 1:4000 Ab98690 antibody (secondary antibody: purchased from Abcam; Cambridge, UK). This mixture was rinsed with TBS (10 × 0.20 mL), then 0.2 mL TBST for 10 min. The plate was then incubated with 2.5 mg/mL 5-Bromo-4-chloro-3-indolyl phosphate (BCIP: a substrate that detects alkaline phosphatase emitting a blue hue when conjugated with secondary antibodies) dissolved in BCIP buffer (5.85 g NaCl, 12.1 g Tris-base, 0.476 g MgCl2 in 1 L of DI water, pH 9.0) at room temperature for 1 h with gentle rocking. The reaction was quenched with 0.1 M HCl.
Previously, we reported on this novel plate-based screening assay of the PRMT family of enzymes and identified a PRMT1 peptide substrate with kcat/Km of 8.1 × 10^4 M^−1 min^−1, which validated this screening methodology. In the current work, we utilized this method to screen a second-generation peptide library against PRMT1, which incorporated amino acids with diverse charge, size, and PTMs around the substrate arginine. Beads functionalized with peptide library members were washed extensively with buffers and subsequently incubated with PRMT1 for 60 min. The methylation reaction was then quenched with sodium dodecyl sulfate to denature PRMT1 and halt the enzymatic reaction. The peptide beads that contained ADMA as a result of PRMT1 action were identified using a 1° antibody that binds only to ADMA. […] The beads were then incubated with a 2° antibody conjugated to alkaline phosphatase. […]

[5] abbreviates: reference histone peptide substrate in Table 3, same kcat/Km as quoted.

Where two headings read alike, the source gives them in different places. Starred links: 1 amine or outer side, 2 acyl side, 3 side chain; linkers in the order of their positions; H or OH if unused. Non-standard residues stand in square brackets, D forms with d. Residues, ends and D or L forms follow the SMILES beside them. X1 = N=C(CCl)NCCC[C@H](N[*:1])C(=O)[*:2]

With `CC(=O)NCCCC[C@H](N)C(=O)N[C@@H](CCCCN)C(=O)N[C@@H](CS)C(=O)N[C@@H](CCCCN)C(=O)N[C@@H](C)C(=O)N[C@@H](CCCNC(=N)CCl)C(=O)NCC(=O)NCC(=O)N[C@@H](CCCCN)C(=O)NCC(=O)N[C@@H](CC(C)C)C(=O)NCC(=O)N[C@@H](CCCCN)C(=O)NCC(=O)NCC(=O)N[C@@H](C)C(=O)N[C@@H](CCCCN)C(N)=O` [VALPep1 Warhead Peptide] (H-K(Ac)KCKA[X1]GGKGLGKGGAK-NH2), the IC50 in test [1] is 3.47 ± 0.46 µM.

“H4-21 peptide: one of the best-known PRMT1 peptide substrates”: the catalytic efficiency (kcat/Km) in test [2] (known PRMT1 peptide substrate Histone H4-21, literature value, no reference printed) was 4670 M⁻¹ s⁻¹; in test [2] (known PRMT1 peptide substrate Histone H4-21, literature value, no reference printed, listed as Histone H4-21) it was 4670 M⁻¹ s⁻¹.

Regarding “SGRGKGGKGLGKGGAK [AcH4-16, Histone H4-16 peptide, a mediocre substrate of PRMT1, template of the library]”, in test [2] (setting [5]), the Km is 170 ± 25 µM and the catalytic constant (kcat) was 0.00533 ± 1.7e-05 s⁻¹. For the same compound, the kcat/Km in test [2] (reference histone peptide substrate) was 31.7 M⁻¹ s⁻¹.

In the case of “VKVCXRGGKGLGKGGAK [Well D5 Peptide, “hit” library peptide VKVCX…, X = acetylated lysine]”, the kcat was 0.0318 ± 0.00188 s⁻¹ in test [3] and 0.03187 ± 0.00188 s⁻¹ in test [3] (listed as Well D5). Besides, the Michaelis-Menten constant (Km) in test [3] (read-out: Km) was found to be 6.78 ± 1.77 µM. In addition, the figures for the kcat/Km in test [3] and in test [3] (listed as Well D5) were 4700 M⁻¹ s⁻¹ and 4702 M⁻¹ s⁻¹, respectively. The “hit / non-hit as PRMT1 substrate in the plate-based screen” value (“hit / non-hit as PRMT1 substrate” for short) in test [4] is reported as “hit”.

Consider “VXWAWRGGKGLGKGGAK [Well E9 Peptide, “non-hit” library peptide VX…, X = acetylated lysine]”, for which, in test [3], the Michaelis constant (Km) result is listed as “not detectable” and the turnover number (kcat) result is “not detectable”. Also, in test [4], the “hit / non-hit as PRMT1 substrate” value is on record as “non-hit”.

Turning to “WWXXWRGGKGLGKGGAK [Well B10 Peptide, “non-hit” library peptide WWXX…, X = acetylated lysine]”, in test [3], the Km entry is “not detectable” and the kcat entry is recorded as “not detectable”. Moreover, in test [4], the “hit / non-hit as PRMT1 substrate” value is on record as “non-hit”.

Take “XCCVARGGKGLGKGGAK [Well G2 Peptide, “hit” library peptide X…, X = acetylated lysine]”: in test [3], the catalytic constant (kcat) was 0.0164 ± 6.7e-05 s⁻¹ and the catalytic efficiency (kcat/Km) is 648 M⁻¹ s⁻¹. In test [3] (read-out: Km), the Km is 25.4 ± 3.95 µM. For the same compound, in test [4], the “hit / non-hit as PRMT1 substrate” value is on record as “hit”.

Consider XKCKARGGKGLGKGGAK [VALPep1], for which, in test [3], the turnover number (kcat) is 0.041 ± 0.00133 s⁻¹ and the kcat/Km was 4700 M⁻¹ s⁻¹. In addition, the Michaelis-Menten constant (Km) in test [3] (read-out: Km) was 8.72 ± 1.2 µM.

In the case of XKCVVRGGKGLGKGGAK [VALPep3], in test [3], the kcat came to 0.0154 ± 0.0006 s⁻¹ and the catalytic efficiency (kcat/Km) came out at 2230 M⁻¹ s⁻¹. The Km in test [3] (read-out: Km) was found to be 6.92 ± 1.16 µM.

As for XKKKARGGKGLGKGGAK [VALPep2], in test [3], the catalytic constant (kcat) came out at 0.043 ± 0.0029 s⁻¹ and the kcat/Km is 5480 M⁻¹ s⁻¹. For the same compound, in test [3] (read-out: Km), the Michaelis constant (Km) was 7.82 ± 2.23 µM.

As to XKKVVRGGKGLGKGGAK [VALPep4], in test [3], the catalytic constant (kcat) worked out at 0.0268 ± 0.00173 s⁻¹ and the kcat/Km is 3600 M⁻¹ s⁻¹. The Km in test [3] (read-out: Km) worked out at 7.42 ± 2.02 µM.
